# Key:
# Assay type in all cases: physicochemical
# [1] = Dissociation of chelates in aq. 6.0M HCl at 80° C. (acid decomplexation kinetic inertness) (Chart 17)
# [2] = Dissociation of chelates in aq. 1.0M HCl at 80° C. (acid decomplexation kinetic inertness) (Chart 18)
# [3] = Dissociation of chelates in aq. 0.1M HCl at 80° C. (acid decomplexation kinetic inertness) (Chart 19)
# [4] = Dissociation of chelates in aq. 0.1M HCl at RT (acid decomplexation kinetic inertness) (Chart 20)
# [5] = Alkali metal dependent formation of 1,5-cz-Lig and 1,4-cz-Lig isomers from Lig at pH 10.2 (Chart 14); details: B: 1 day at 80° C., Borate/(M^I)2CO3 buffer pH 10.2; for conversion to 1,4-cz-Lig isomer, Li^I / conversion to 1,5-cz-Lig isomer, Li^I: visible analyte free precipitate
SMILES,fraction of intact chelate ([1]; 1 month) [%],fraction of intact chelate ([1]; 1 week) [%],fraction of intact chelate ([1]; 1 hour) [%],fraction of intact chelate ([1]; 1 day) [%],"conversion to 1,4-cz-Lig isomer, Cs^I [5] [%]","conversion to 1,4-cz-Lig isomer, K^I [5] [%]","conversion to 1,4-cz-Lig isomer, Na^I [5] [%]","conversion to 1,4-cz-Lig isomer, Rb^I [5] [%]","conversion to 1,5-cz-Lig isomer, Cs^I [5] [%]","conversion to 1,5-cz-Lig isomer, K^I [5] [%]","conversion to 1,5-cz-Lig isomer, Na^I [5] [%]","conversion to 1,5-cz-Lig isomer, Rb^I [5] [%]","conversion to 1,4-cz-Lig isomer, Li^I [5] [%]","conversion to 1,5-cz-Lig isomer, Li^I [5] [%]",also measured
O=C1C[N@@]2CC[N@]3CC[N@@](CC[N@](CC2)Cc2cccc(n2)-c2cnnn2Cc2cc(-c4ccccc4)cc(n2)C3)CC(=O)[O][Dy][O]1 [TD866],0,0,95,25,–,–,–,–,–,–,–,–,–,–,fraction of intact chelate ([2]; 1 month): 87%; fraction of intact chelate ([2]; 1 week): 96%; fraction of intact chelate ([2]; 1 hour): 100%; fraction of intact chelate ([2]; 1 day): 99%; fraction of intact chelate ([3]; 1 month): 100%; fraction of intact chelate ([3]; 1 week): 100%; fraction of intact chelate ([3]; 1 hour): 100%; fraction of intact chelate ([3]; 1 day): 100%; fraction of intact chelate ([4]; 1 month): 100%; fraction of intact chelate ([4]; 1 week): 100%; fraction of intact chelate ([4]; 1 hour): 100%; fraction of intact chelate ([4]; 1 day): 100%
O=C1C[N@@]2CC[N@]3CC[N@@](CC[N@](CC2)Cc2cccc(n2)-c2cnnn2Cc2cc(-c4ccc(C(=O)O)cc4)cc(n2)C3)CC(=O)[O][Lu][O]1 [TD748],97,100,100,100,–,–,–,–,–,–,–,–,–,–,–
C#Cc1cccc(CN2CCN(CP(=O)(O)O)CCN(Cc3cccc(CN=[N+]=[N-])n3)CCN(CP(=O)(O)O)CC2)n1 [TD581],–,–,–,–,31,32,26,32,6,7,25,7,19,10,–
C#Cc1cccc(CN2CCNCCN(Cc3cccc(CN=[N+]=[N-])n3)CCN(CC(=O)O)CC2)n1 [TD703],–,–,–,–,20,20,10,20,13,14,75,14,14,24,–

# — patent US20250147039A1, “Compounds for complexation of rare earth elements and/or s-, p-, d- block metals, their coordination compounds, peptide conjugates, method of their preparation and use thereof” (USTAV ORGANICKE CHEMIE A BIOCHEMIE AV CR V.V.I., priority 2021, published 2025)
